Series [1] relates to HEK-293T cells. The series can be described thus: Lentiviral transduction enhancement in HEK-293T cells (GFP+ cells by flow cytometry). Particulars: for transduction enhancing activity: K18-derived peptides at 1 µM compared with commercial TE, MOI = 1 (Figure 3). It counts as cell-based, human. Here is the method:
(§1) To carry out the transduction enhancement assays, 3000 cells (HEK-293T or NIH/3T3, both purchased at the ATCC) were seeded in 100 µL of culture medium (consisting of Dulbecco's Modified Eagle Medium (high glucose) (DMEM, Gibco™), supplemented with 10% fetal bovine serum (FBS), 1% L-glutamine and 1% penicillin/streptomycin (P/S) (both from Cultek S.L.U.), per well, in culture-treated flat-bottomed 96-well plates, and incubated for 24 h at 37° with 5% CO2 and 100% relative humidity.
The vector was diluted in complete medium, and the appropriate amounts were added to each well at the chosen MOI into a final volume of 200 µL per well, in the absence or presence of the chosen TE (peptides, LB, VF-1, PS, RN, PGE2) at different concentrations and following the manufacturer's recommendations. The culture medium was changed 24 h after transduction and the cells were incubated for 48 h more until the plate was analyzed 3 days post-transduction by flow cytometry.
All experiments included a non-transduced control (cells only) without vector exposure, and a control with vectors but without TE (basal transduction). In all assays, a minimum of three replicates (technical replicates) were performed per experimental condition, and were repeated a minimum of three times (experimental replicates) for statistical analysis.
Transduction efficiency was analyzed using an LSR Fortessa cell analyzer (Becton, Dickinson, New Jersey, USA), after 3, 7 or 14 days post-transduction (depending on the target cell type). First, cells were transferred using a multichannel pipette to a U-bottom 96-well plate. Live and dead cells were dis-criminated using 1 µg/mL 7-amino-actinomycin D (7-AAD).
To analyze the transduction efficacy and cytotoxicity of the compounds used, different gates of analysis were defined. Samples of transduced cells (labeled and unlabeled with PI or 7-AAD), with a minimum of 10.000 events in the relevant gate, were acquired. Further, appropriate thresholds were established to define the cell populations. Four final gates were created and applied sequentially: • Gate 1. Plotting forward scatter high or FSC-H (Forward scatter height) versus forward scatter area or FSC-A (Forward scatter area). Here single events were gated to eliminate doublets. • Gate 2. Plotting the Side scatter area (SSC-A) against the Forward scatter area (FSC-A). This gate was used to eliminate cellular debris and atypical and undesired events, taking into account their morphology and complexity. • Gate 3. Thanks to the labeling of the cells with PI or 7-AAD it was possible to calculate the percentage of dead cells and eliminate them from the study. Only live cells were considered for the subsequent analysis gate. • Gate 4. The percentage of live transduced cells was obtained using eGFP fluorescence (FL1). As an additional parameter, the Mean Fluorescence Intensity (MFI) of the transduced cells was measured. The MFI is the mean of all fluorescence intensities of individual cells (or events) in a desired population. In our case, the MFI values obtained represented the mean fluorescence level of eGFP in the transduced cells (gate 4). All data were obtained and analyzed using FACSDiva software v6.2 and FlowJo v10 software (both from BD Biosciences).

The subject of series [2] is NK cells. In words: Lentiviral transduction enhancement in primary NK cells (flow cytometry). It counts as cell-based, human. Particulars: MOI = 5; for fold changes: fold change relative to basal transduction, 1.5 µM. Here is the method:
• 1. Total blood samples were collected and processed in less than 4 h. After obtaining the peripheral blood mononuclear cells (PBMCs) by density gradient centrifugation (Ficoll), NK cells (following the instructions of the Miltenyi Biotec isolation kit) from human they were seeded in a 24-well plate [10^6 cells per well in 1 mL of complete medium (NK MACS supplemented with 5% AB serum (Tebu-Bio, Le Perray, France), recombinant human IL-2 (rhIL-2) and recombinant human IL-15 (rhIL-15), both from Miltenyi Biotec)], and incubated at 37°C, 5% CO2, and 100% relative humidity. • 2. After 48 h in culture, cells were counted, and about 40,000 cells were seeded in 100 µL of complete medium (per well) in culture-treated 96-well flat-bottom plate. The transduction process was performed as follows: • 3. Calculate the required volume of lentiviral vector for a known number of NK cells and desired MOI, and the vector diluted in complete medium. Simultaneously, prepare all the enhancers to be used in the assay (micellar peptides, LB, PS, VF-1, etc.) at the concentrations recommended by the manufacturers. […] At days 3, 7 and 14 post-transduction, the cells were analyzed by flow cytometry.
(§2) Transduction efficiency was analyzed using an LSR Fortessa cell analyzer (Becton, Dickinson, New Jersey, USA), after 3, 7 or 14 days post-transduction (depending on the target cell type). […]
To analyze the transduction efficacy and cytotoxicity of the compounds used, different gates of analysis were defined. […] The percentage of live transduced cells was obtained using eGFP fluorescence (FL1). As an additional parameter, the Mean Fluorescence Intensity (MFI) of the transduced cells was measured. The MFI is the mean of all fluorescence intensities of individual cells (or events) in a desired population. In our case, the MFI values obtained represented the mean fluorescence level of eGFP in the transduced cells (gate 4). All data were obtained and analyzed using FACSDiva software v6.2 and FlowJo v10 software (both from BD Biosciences).
On the technique in general: A flow cytometer gives signals particle by particle.

The nature of series [3]: Antimicrobial activity. The settings on record: concentrations higher than 10-15 µM; dose-dependent. It counts as cell-based.
For series [4] the following is noted: concentrations higher than 10-15 µM; dose-dependent. As to the method:
Studies with the fluorochrome Yo-Pro-1 were performed at the laboratory of Dr. Pablo Pelegrin, at the University of Murcia.

Series [5] has as its system CD34^+ cells. The series can be described thus: Lentiviral transduction enhancement in CD34+ hematopoietic cells (flow cytometry). It counts as cell-based, human. Particulars: peptides at 3 µM, LB 5 mg/mL; MOI = 1; days 3, 7 and 14 after transduction; only K18-8R and LentiBoost statistically significant vs basal transduction (Figure 4). Here is the method:
• 1. The CD34^+ cells were isolated from apheresis products from healthy donors and cryopreserved in liquid nitrogen until use. Cells were then thawed, counted with trypan blue, and seeded in culture-treated 96-well flat-bottom plates, about 50.000 cells per well in 100 µL of complete StemSpan™ SFEM Hematopoietic Cell Culture Medium (SFEM medium) (Stem Cell Technologies™, Vancouver, Canada), and incubated at 37°C, 5% CO2 and 100% relative humidity. The complete medium was supplemented with recombinant human stem cell factor (rhSCF), recombinant human flt3 ligand (rhFlt3-L) and recombinant human thrombopoietin (rhTpo) (all from EuroBioScience, Friesoythe, Germany). • 2. After 24 h in culture, the cells were transduced as follow: Previously, the required volume of lentiviral vector was calculated in accordance with the vector titer, the CD34^+ target cell number and the desired MOI. Prior to its use, the vector was diluted in complete SFEM medium. • 3. […] Finally, at 3, 7 and 14 days post-transduction, the cells were analyzed by flow cytometry and the plates were stored at -80° for future analyses.
as §2

The test system of series [6] is CD4^+ T cells. The series can be described thus: Lentiviral (anti-CD19 CAR) transduction enhancement in CD4+ T cells (flow cytometry). Type of series: cell-based, human. Particulars: 72 h after transduction; differences between the four compounds not statistically significant (Figure 6). As to the method: • 1. After isolation and activation of the CD4^+ T cells, a suspension of 10^6 cells/mL was prepared and 100 µL were added per well to a 96-well flat-bottom plate and incubated at 37°C, 5% CO2, and 100% relative humidity. After 24 h in culture, the vector was diluted to the desired concentration and mixed with the different TEs (peptides, LB, VF-1, PS, PGE2), and 50 µL per well of the vector-TEs solution was added. The A3B1:CD8:4-1BB:CD3ζ (also named ARI001-CodonOptimized3 vector), a third generation lentiviral vector encoding an anti-human CD19 CAR, was used for this assay. • 2. After 72 h post-transduction, samples were collected and stained for flow cytometry analysis: First, the entire plate contents were transferred to a pre-labeled 96-well roundbottom plate. Two washes were performed with 1X PBS, adding 100 µL per well and centrifuging the plate for 2' at 2000 rpm. In the last wash, the supernatant was discarded, and 100 µL of a working solution of eFluor™ 450 - Fixable Viability Dye Live/Dead (eBioscience™) was added and incubated for 30' at RT. • 3. Two washes were performed with 200 µL of FACS buffer (PBS 1X + 3% FBS). […] Finally, transduction efficiency was analyzed by flow cytometry to determine the percentage of CAR-positive T cells.

Series [7] has as its system NIH/3T3 cells. The series can be described thus: Lentiviral transduction enhancement in NIH/3T3 cells (GFP+ cells and living cells by flow cytometry). The settings on record: micellar peptide at 1 µM; MOI = 1; GFP+ cells 72 h after vector exposure; compared with other TEs (Figure 1). It counts as cell-based, murine. Here is the method:
as §1
The vector was diluted in complete medium, and the appropriate amounts were added to each well at the chosen MOI into a final volume of 200 µL per well, in the absence or presence of the chosen TE (peptides, LB, VF-1, PS, RN, PGE2) at different concentrations and following the manufacturer's recommendations. The culture medium was changed 24 h after transduction and the cells were incubated for 48 h more until the plate was analyzed 3 days post-transduction by flow cytometry. […]
as §2
To analyze the transduction efficacy and cytotoxicity of the compounds used, different gates of analysis were defined. […] The percentage of live transduced cells was obtained using eGFP fluorescence (FL1). […]

For the sequence LLNVKMALDIEIRRRRRRRR [DIF-P-8R], the enhancing activity entry in series [1] (several concentrations, MOI 1 and 5, experiment made only once (Figure 2)) is listed as “enhancing activity, that was higher at 5-15 µM than at 1 µM”.

On to “LLNIKVKLEAEIRRRRRRRR (poloxamer F-127 micelles) [K18-8R, first 12 amino acids of K18 plus an 8R tail; conjugated to poloxamer F-127 polymeric micelles]”, for which the fold changes in series [2] (day 3) is listed as 2.2; in series [2] (day 14) it was 3.5. Further, the enhancing activity entry in series [2] (peptides at 1.5 µM, compared with scrambled control, micelle alone and LB (Figure 7)) was “highest enhancing activity”. Moreover, the antimicrobial activity result in series [3] is given as “predominated”. Moreover, the cytotoxic activity result in series [4] is “predominated”. Moreover, in series [4], the hemolytic activity entry is recorded as “predominated”. The “enhancing efficacy (transduction efficiencies by flow cytometry)” value in series [5] is “highest enhancing efficacy”. Also, the transduction efficiency result in series [6] is on record as “highest transduction efficiency”. The transduction enhancing activity entry is “highest transduction enhancing activity” in series [7] and “highest activity” in series [1]. In addition, the “transduction enhancing activity at higher concentrations” value in series [1] (5 µM or more, MOI 1 and 5, perhaps due to toxicity (Figure 2)) is reported as “decreased”. Besides, the transduction enhancement entry in series [1] (peptide at 1 µM, MOI 1 and 5, experiment made only once (Figure 2)) is reported as “highest transduction enhancement”.

“LLNKEIKIEVALARRRRRRRR (polymeric micelles) [Sc-K18-8R, conjugated to polymeric micelles, reference compound]”: the “enhancing efficacy (transduction efficiencies by flow cytometry)” value in series [5] is reported as “significant enhancing activity”.

On to “LLNIKVKLEAEIATYRRLLE (poloxamer F-127 micelles) [K18, conjugated to poloxamer F-127 polymeric micelles]”, for which the transduction enhancing activity entry in series [1] is “highest activity”.
